{
  "source": "the NIST ThermoML archive (doi:10.1016/j.jct.2015.08.013)",
  "test": "xn = mol fraction of the nth substance listed",
  "details": "100 kPa, Liquid; for mass density: Vibrating tube method; for viscosity: Capillary tube (Ostwald / Ubbelohde) method",
  "note": "Numbers after ± are expanded uncertainties.",
  "data": [
    {"compound": "CC1COC(=O)O1", "note": "(configuration not stated) [4-methyl-1,3-dioxolan-2-one] + CN1CCCC1=O", "values": [
      {"measurement": "mass density", "setting": "293.15 K, x2 = 0", "result": "1204.81 ± 1.6", "unit": "kg/m3"},
      {"measurement": "mass density", "setting": "293.15 K, x2 = 0.0523", "result": "1194.07 ± 1.7", "unit": "kg/m3"},
      {"measurement": "mass density", "setting": "293.15 K, x2 = 0.1021", "result": "1184.1 ± 1.7", "unit": "kg/m3"},
      {"measurement": "mass density", "setting": "293.15 K, x2 = 0.1995", "result": "1165.18 ± 1.6", "unit": "kg/m3"},
      {"measurement": "mass density", "setting": "293.15 K, x2 = 0.2987", "result": "1146.67 ± 1.6", "unit": "kg/m3"},
      {"measurement": "mass density", "setting": "293.15 K, x2 = 0.4003", "result": "1128.44 ± 1.6", "unit": "kg/m3"},
      {"measurement": "mass density", "setting": "293.15 K, x2 = 0.5164", "result": "1108.38 ± 1.6", "unit": "kg/m3"},
      {"measurement": "mass density", "setting": "293.15 K, x2 = 0.6011", "result": "1094.3 ± 1.6", "unit": "kg/m3"},
      {"measurement": "mass density", "setting": "293.15 K, x2 = 0.6989", "result": "1078.57 ± 1.6", "unit": "kg/m3"},
      {"measurement": "mass density", "setting": "293.15 K, x2 = 0.7989", "result": "1062.97 ± 1.6", "unit": "kg/m3"},
      {"measurement": "mass density", "setting": "293.15 K, x2 = 0.9003", "result": "1047.58 ± 1.6", "unit": "kg/m3"},
      {"measurement": "mass density", "setting": "293.15 K, x2 = 0.9506", "result": "1040.04 ± 1.6", "unit": "kg/m3"},
      {"measurement": "viscosity", "setting": "298.15 K, x2 = 0", "result": "2.52 ± 0.052", "unit": "mPa·s"},
      {"measurement": "viscosity", "setting": "298.15 K, x2 = 0.114", "result": "2.391 ± 0.05", "unit": "mPa·s"},
      {"measurement": "viscosity", "setting": "298.15 K, x2 = 0.2013", "result": "2.294 ± 0.048", "unit": "mPa·s"},
      {"measurement": "viscosity", "setting": "298.15 K, x2 = 0.3347", "result": "2.158 ± 0.045", "unit": "mPa·s"},
      {"measurement": "viscosity", "setting": "298.15 K, x2 = 0.389", "result": "2.103 ± 0.044", "unit": "mPa·s"},
      {"measurement": "viscosity", "setting": "298.15 K, x2 = 0.5", "result": "2.003 ± 0.042", "unit": "mPa·s"},
      {"measurement": "viscosity", "setting": "298.15 K, x2 = 0.597", "result": "1.926 ± 0.041", "unit": "mPa·s"},
      {"measurement": "viscosity", "setting": "298.15 K, x2 = 0.709", "result": "1.845 ± 0.039", "unit": "mPa·s"},
      {"measurement": "viscosity", "setting": "298.15 K, x2 = 0.7891", "result": "1.796 ± 0.038", "unit": "mPa·s"},
      {"measurement": "viscosity", "setting": "298.15 K, x2 = 0.8985", "result": "1.732 ± 0.037", "unit": "mPa·s"},
      {"measurement": "mass density", "setting": "298.15 K, x2 = 0", "result": "1199.02 ± 1.6", "unit": "kg/m3"},
      {"measurement": "mass density", "setting": "298.15 K, x2 = 0.0523", "result": "1188.38 ± 1.7", "unit": "kg/m3"},
      {"measurement": "mass density", "setting": "298.15 K, x2 = 0.1021", "result": "1178.51 ± 1.6", "unit": "kg/m3"},
      {"measurement": "mass density", "setting": "298.15 K, x2 = 0.1995", "result": "1159.73 ± 1.6", "unit": "kg/m3"},
      {"measurement": "mass density", "setting": "298.15 K, x2 = 0.2987", "result": "1141.4 ± 1.6", "unit": "kg/m3"},
      {"measurement": "mass density", "setting": "298.15 K, x2 = 0.4003", "result": "1123.3 ± 1.6", "unit": "kg/m3"},
      {"measurement": "mass density", "setting": "298.15 K, x2 = 0.5164", "result": "1103.36 ± 1.6", "unit": "kg/m3"},
      {"measurement": "mass density", "setting": "298.15 K, x2 = 0.6011", "result": "1089.39 ± 1.6", "unit": "kg/m3"},
      {"measurement": "mass density", "setting": "298.15 K, x2 = 0.6989", "result": "1073.78 ± 1.6", "unit": "kg/m3"},
      {"measurement": "mass density", "setting": "298.15 K, x2 = 0.7989", "result": "1058.3 ± 1.6", "unit": "kg/m3"},
      {"measurement": "mass density", "setting": "298.15 K, x2 = 0.9003", "result": "1043 ± 1.6", "unit": "kg/m3"},
      {"measurement": "mass density", "setting": "298.15 K, x2 = 0.9506", "result": "1035.5 ± 1.6", "unit": "kg/m3"},
      {"measurement": "viscosity", "setting": "303.15 K, x2 = 0", "result": "2.27 ± 0.047", "unit": "mPa·s"},
      {"measurement": "viscosity", "setting": "303.15 K, x2 = 0.114", "result": "2.157 ± 0.045", "unit": "mPa·s"},
      {"measurement": "viscosity", "setting": "303.15 K, x2 = 0.2013", "result": "2.076 ± 0.043", "unit": "mPa·s"},
      {"measurement": "viscosity", "setting": "303.15 K, x2 = 0.3347", "result": "1.957 ± 0.041", "unit": "mPa·s"},
      {"measurement": "viscosity", "setting": "303.15 K, x2 = 0.389", "result": "1.908 ± 0.04", "unit": "mPa·s"},
      {"measurement": "viscosity", "setting": "303.15 K, x2 = 0.5", "result": "1.821 ± 0.038", "unit": "mPa·s"},
      {"measurement": "viscosity", "setting": "303.15 K, x2 = 0.597", "result": "1.754 ± 0.037", "unit": "mPa·s"},
      {"measurement": "viscosity", "setting": "303.15 K, x2 = 0.709", "result": "1.685 ± 0.036", "unit": "mPa·s"},
      {"measurement": "viscosity", "setting": "303.15 K, x2 = 0.7891", "result": "1.641 ± 0.035", "unit": "mPa·s"},
      {"measurement": "viscosity", "setting": "303.15 K, x2 = 0.8985", "result": "1.585 ± 0.034", "unit": "mPa·s"},
      {"measurement": "mass density", "setting": "303.15 K, x2 = 0", "result": "1194 ± 1.6", "unit": "kg/m3"},
      {"measurement": "mass density", "setting": "303.15 K, x2 = 0.0523", "result": "1183.42 ± 1.7", "unit": "kg/m3"},
      {"measurement": "mass density", "setting": "303.15 K, x2 = 0.1021", "result": "1173.58 ± 1.6", "unit": "kg/m3"},
      {"measurement": "mass density", "setting": "303.15 K, x2 = 0.1995", "result": "1154.87 ± 1.6", "unit": "kg/m3"},
      {"measurement": "mass density", "setting": "303.15 K, x2 = 0.2987", "result": "1136.58 ± 1.6", "unit": "kg/m3"},
      {"measurement": "mass density", "setting": "303.15 K, x2 = 0.4003", "result": "1118.52 ± 1.6", "unit": "kg/m3"},
      {"measurement": "mass density", "setting": "303.15 K, x2 = 0.5164", "result": "1098.63 ± 1.6", "unit": "kg/m3"},
      {"measurement": "mass density", "setting": "303.15 K, x2 = 0.6011", "result": "1084.68 ± 1.6", "unit": "kg/m3"},
      {"measurement": "mass density", "setting": "303.15 K, x2 = 0.6989", "result": "1069.12 ± 1.6", "unit": "kg/m3"},
      {"measurement": "mass density", "setting": "303.15 K, x2 = 0.7989", "result": "1053.68 ± 1.6", "unit": "kg/m3"},
      {"measurement": "mass density", "setting": "303.15 K, x2 = 0.9003", "result": "1038.41 ± 1.6", "unit": "kg/m3"},
      {"measurement": "mass density", "setting": "303.15 K, x2 = 0.9506", "result": "1030.92 ± 1.6", "unit": "kg/m3"},
      {"measurement": "viscosity", "setting": "308.15 K, x2 = 0", "result": "2.08 ± 0.043", "unit": "mPa·s"},
      {"measurement": "viscosity", "setting": "308.15 K, x2 = 0.114", "result": "1.988 ± 0.042", "unit": "mPa·s"},
      {"measurement": "viscosity", "setting": "308.15 K, x2 = 0.2013", "result": "1.916 ± 0.04", "unit": "mPa·s"},
      {"measurement": "viscosity", "setting": "308.15 K, x2 = 0.3347", "result": "1.81 ± 0.038", "unit": "mPa·s"},
      {"measurement": "viscosity", "setting": "308.15 K, x2 = 0.389", "result": "1.767 ± 0.037", "unit": "mPa·s"},
      {"measurement": "viscosity", "setting": "308.15 K, x2 = 0.5", "result": "1.688 ± 0.036", "unit": "mPa·s"},
      {"measurement": "viscosity", "setting": "308.15 K, x2 = 0.597", "result": "1.628 ± 0.034", "unit": "mPa·s"},
      {"measurement": "viscosity", "setting": "308.15 K, x2 = 0.709", "result": "1.568 ± 0.033", "unit": "mPa·s"},
      {"measurement": "viscosity", "setting": "308.15 K, x2 = 0.7891", "result": "1.527 ± 0.032", "unit": "mPa·s"},
      {"measurement": "viscosity", "setting": "308.15 K, x2 = 0.8985", "result": "1.475 ± 0.031", "unit": "mPa·s"},
      {"measurement": "mass density", "setting": "308.15 K, x2 = 0", "result": "1188.57 ± 1.6", "unit": "kg/m3"},
      {"measurement": "mass density", "setting": "308.15 K, x2 = 0.0523", "result": "1178.1 ± 1.6", "unit": "kg/m3"},
      {"measurement": "mass density", "setting": "308.15 K, x2 = 0.1021", "result": "1168.35 ± 1.6", "unit": "kg/m3"},
      {"measurement": "mass density", "setting": "308.15 K, x2 = 0.1995", "result": "1149.78 ± 1.6", "unit": "kg/m3"},
      {"measurement": "mass density", "setting": "308.15 K, x2 = 0.2987", "result": "1131.63 ± 1.6", "unit": "kg/m3"},
      {"measurement": "mass density", "setting": "308.15 K, x2 = 0.4003", "result": "1113.71 ± 1.6", "unit": "kg/m3"}
    ]}
  ]
}
